Here are results for seven compounds from patent publication US10889849B2, “Oxidized glutathione assay” (PROMEGA CORPORATION, priority 2010, dated 2021).

In one assay the target is T1, GST (Promega) (Schistosoma japonicum, UniProt P08515).
T1 construct: purchased Promega
As to the kind of experiment: GSSG measurement with other luciferin derivatives (luminescence). Type of assay: biochemical. The conditions noted are these: GSSG 0.0 μM, luminescence without GSSG subtracted. The procedure:
Oxidized glutathione was serially diluted from a 10 mM stock in water to 0, 0.1, 0.5 and 2.5 uM into three different 96-well luminometer plates with duplicate reactions performed. A 30 μl sample of the GST 30 stock was diluted to 3 ml with GSH Glo Reaction Buffer (Promega), and 25 μl added to one of the plates (“30”). A 30 μl sample of GST 28 was diluted to 3 ml with GSH Glo Reaction Buffer, and 25 μl added to a second plate (“28”). A 110 μL sample of GST-22 was diluted to 3 ml with GSH Glo Reaction Buffer, and 25 μl added to the third plate (“GST-22” or “NT”). 50 μl of GSH Glo Reaction Buffer was then added to half the samples of each plate. 25 μl GSH Glo Reaction Buffer with DTT (150 μl of 100 mM DTT to 15 ml of GSH Glo Reaction Buffer) was added to the other half of the samples in each of the plates.
A 60 μl sample of GST (Promega) was diluted to 1 ml with GSH Glo Reaction Buffer, and 50 μl added to duplicate columns of each plate. […] The resulting luminescence was collected, and the duplicates averaged. The luminescence measured in the absence of GSSG was subtracted from that of the three GSSG concentrations, and the resulting values are presented in Table 6.

The target in the next assay is T2, S. japonica GST (Sigma) (Schistosoma japonicum, UniProt P08515).
T2 construct: purchased Sigma
As to the kind of experiment: Two step luminescent test of GST-3 as GST substrate, S. japonica GST. In kind it is biochemical. As for the experimental part: (§1) In the first step, GST-3 was added to a mixture containing a GST enzyme with or without glutathione. At different times after reaction initiation, a portion of the reaction was mixed with a luciferase reaction mixture. Reactions in which light production increased over time indicate that the derivative, GST-3, is a substrate for GST and can be used in an assay to detect GST and/or reduced glutathione (GSH).
(§2) Various GST enzyme forms were used to test the use of GST-3 as a substrate for GST to detect GST or GSH. All components except for the GST enzyme were added.

A further assay concerns porcine GST (Sigma). In words: Two step luminescent test of GST-3 as GST substrate, porcine GST. Type of assay: biochemical. As for the experimental part: as §1, §2
The test system of another assay is equine GST (Sigma). As to the kind of experiment: Two step luminescent test of GST-3 as GST substrate, equine GST. Type of assay: biochemical. The procedure:
as §1, §2

Assay [1] is described as follows: Two step luminescent test of GST-3, reactions without GST enzyme. Type of assay: biochemical. The procedure: as §1, §2
For assay [2] the following is noted: numerous reports (Srivastava et al. 2010); leading to cell death by apoptosis or necrosis; cited from earlier work.
In another assay the test system is GST M. In words: Fluorescent detection of glutathione using Coumarin derivatives, GST M. Type of assay: biochemical. The conditions noted are these: images at 1, 3, 5 and 20 minutes post GST enzyme addition.
Another assay has as its system GST A. In words: Fluorescent detection of glutathione using Coumarin derivatives, GST A. Type of assay: biochemical. The conditions noted are these: images at 1, 3, 5 and 20 minutes post GST enzyme addition. The procedure:
(§3) A Prionex® solution was made by mixing 200 μl of 10% Prionex® (Sigma) with 9.8 ml of 10 mM potassium phosphate buffer, pH 7.4, and 75 μl added to all wells of a 96-well, microtiter plate (“sample plate”). Stock solutions (2 mg/ml) of the GST enzymes GST (Promega Corp. V689B), GST A, GST B, and GST P (purified to have less than 1 mole of GSH per mole of protein) were diluted by addition of 12 ul of the enzyme to 150 ul of 10 mM Potassium Phosphate buffer pH 7.4/Prionex solution. These diluted stocks were then added to the wells. 75 ul of the diluted stocks were added to the wells in row A, and 75 ul transferred from row A through to row H to generate 1:1 serially diluted enzyme solutions.
(§4) To a different, 96-well microtiter plate, 25 μl of diluted PBI 4153 (25 μl 1 mg/ml solution of PBI 4153 with 5 ml of 10 mM potassium phosphate pH 7.4) was added to wells A1-H10 of the plate (“4153”). […]
(§5) If one or more of the GST enzyme forms can catalyze the Coumarin compound in the presence of glutathione, the samples containing a GST enzyme form will have an increase in fluorescence. The better the GST enzyme form can utilize the Coumarin derivative, the more rapid the increase in fluorescence, and the lower the concentrations of GST enzyme needed to be able to produce a substantial increase in fluorescence over time.

Assay [3] concerns the target T3, GST (Promega Corp. V689B) (Schistosoma japonicum, UniProt P08515).
T3 construct: purchased Promega Corp. V689B
In words: Fluorescent detection of glutathione using Coumarin derivatives, GST from Promega. In kind it is biochemical. The conditions noted are these: images at 1, 3, 5 and 20 minutes post GST enzyme addition. As for the experimental part: as §3, §4, §5

The target of a further assay is GST P (Homo sapiens, UniProt P09211). In words: Fluorescent detection of glutathione using Coumarin derivatives, GST P. The conditions noted are these: images at 1, 3, 5 and 20 minutes post GST enzyme addition. In kind it is biochemical. As for the experimental part: as §3, §4, §5
Assay [4] in a line: Fluorescent detection using Coumarin derivatives, control wells with only buffer (no GST). The conditions noted are these: reduced glutathione present, 1, 3, 5 and 20 minutes. In kind it is biochemical. As for the experimental part:
as §3, §4, §5

T2 sequence (P08515 whole entry): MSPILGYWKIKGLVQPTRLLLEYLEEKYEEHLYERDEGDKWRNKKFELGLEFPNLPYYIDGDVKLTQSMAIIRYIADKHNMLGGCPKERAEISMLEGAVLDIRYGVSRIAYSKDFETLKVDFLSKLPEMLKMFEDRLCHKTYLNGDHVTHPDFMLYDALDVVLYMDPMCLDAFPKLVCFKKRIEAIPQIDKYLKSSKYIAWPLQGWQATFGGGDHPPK
T1 sequence (P08515 whole entry): as above
GST P, sequence (P09211 whole entry): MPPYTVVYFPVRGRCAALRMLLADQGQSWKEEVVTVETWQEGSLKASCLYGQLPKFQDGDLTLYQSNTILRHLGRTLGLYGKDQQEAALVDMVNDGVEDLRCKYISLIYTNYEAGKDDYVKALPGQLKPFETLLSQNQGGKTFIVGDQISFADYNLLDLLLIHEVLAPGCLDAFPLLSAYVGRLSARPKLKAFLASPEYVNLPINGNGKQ

Consider `Cc1ccc(S(=O)(=O)Oc2ccc3nc(C4=N[C@@H](C(=O)O)CS4)sc3c2)c([N+](=O)[O-])c1` [GST-22, Luciferin 2-nitro-4-methylbenzenesulfonate], for which the “Luminescence, GST with DTT” value on GST (Promega) (GST with DTT) was 0. For the same compound, at GST (Promega) (without enzyme and DTT), the “Luminescence, No DTT” value was 0. Besides, at GST (Promega) (without enzyme but with DTT), the “Luminescence, With DTT” value worked out at 0.
Take `O=C(O)[C@H]1CSC(c2ccc3cc(Oc4ccc(C(F)(F)F)cc4[N+](=O)[O-])ccc3n2)=N1` [GST-3, 6-(2 nitro-4-trifluoromethyl-phenoxy)quinolinyl-luciferin]: the “Luminescence values (RLUs)” value on S. japonica GST (Sigma) (reaction 3: S. japonica GST, no glutathione, 0.1 minutes) came to 32.67 RLUs; at S. japonica GST (Sigma) (reaction 3: S. japonica GST, no glutathione, 5 minutes), 32.42 RLUs; on S. japonica GST (Sigma) (reaction 3: S. japonica GST, no glutathione, 10 minutes), 38.65 RLUs; on S. japonica GST (Sigma) (reaction 3: S. japonica GST, no glutathione, 15 minutes), 33.82 RLUs; on S. japonica GST (Sigma) (reaction 4: S. japonica GST with glutathione, 0.1 minutes), 32.57 RLUs; on S. japonica GST (Sigma) (reaction 4: S. japonica GST with glutathione, 5 minutes), 40.79 RLUs. In addition, the “Luminescence values (RLUs)” value at S. japonica GST (Sigma) (reaction 4: S. japonica GST with glutathione, 10 minutes) came to 48.64 RLUs; on S. japonica GST (Sigma) (reaction 4: S. japonica GST with glutathione, 15 minutes), 61.54 RLUs; in the assay with porcine GST (Sigma) (reaction 5: porcine GST, no glutathione, 0.1 minutes) it was 46.95 RLUs; in the assay with porcine GST (Sigma) (reaction 5: porcine GST, no glutathione, 5 minutes), 51.85 RLUs; in the assay with porcine GST (Sigma) (reaction 5: porcine GST, no glutathione, 10 minutes), 51.15 RLUs; with porcine GST (Sigma) (reaction 5: porcine GST, no glutathione, 15 minutes), 48.41 RLUs. The “Luminescence values (RLUs)” value with porcine GST (Sigma) (reaction 6: porcine GST with glutathione, 0.1 minutes) was 71.1 RLUs; with porcine GST (Sigma) (reaction 6: porcine GST with glutathione, 5 minutes) it was 269.1 RLUs; with porcine GST (Sigma) (reaction 6: porcine GST with glutathione, 10 minutes) it was 463.2 RLUs; in the assay with porcine GST (Sigma) (reaction 6: porcine GST with glutathione, 15 minutes) it was 619.3 RLUs; with equine GST (Sigma) (reaction 7: equine GST, no glutathione, 0.1 minutes) it was 30.42 RLUs; with equine GST (Sigma) (reaction 7: equine GST, no glutathione, 5 minutes), 32.98 RLUs. Also, the “Luminescence values (RLUs)” value in the assay on equine GST (Sigma) (reaction 7: equine GST, no glutathione, 10 minutes) amounted to 38.75 RLUs; in the assay on equine GST (Sigma) (reaction 7: equine GST, no glutathione, 15 minutes), 38.39 RLUs; with equine GST (Sigma) (reaction 8: equine GST with glutathione, 0.1 minutes) it was 252.2 RLUs; in the assay on equine GST (Sigma) (reaction 8: equine GST with glutathione, 5 minutes) it was 3662 RLUs; with equine GST (Sigma) (reaction 8: equine GST with glutathione, 10 minutes), 7629 RLUs; in the assay on equine GST (Sigma) (reaction 8: equine GST with glutathione, 15 minutes), 9324 RLUs. For the same compound, the “Luminescence values (RLUs)” value came out at 33.26 RLUs in assay [1] (reaction 1: no GST, no glutathione, 0.1 minutes); 38.2 RLUs in assay [1] (reaction 1: no GST, no glutathione, 5 minutes); 32.17 RLUs in assay [1] (reaction 1: no GST, no glutathione, 10 minutes); 35.53 RLUs in assay [1] (reaction 1: no GST, no glutathione, 15 minutes); 35.72 RLUs in [1] (reaction 2: no GST, with glutathione, 0.1 minutes); 36.07 RLUs in assay [1] (reaction 2: no GST, with glutathione, 5 minutes). Further, the “Luminescence values (RLUs)” value in [1] (reaction 2: no GST, with glutathione, 10 minutes) is listed as 40.85 RLUs; in assay [1] (reaction 2: no GST, with glutathione, 15 minutes), 46.43 RLUs.
Take `CC/C(=C(\c1ccccc1)c1ccc(OCCN(C)C)cc1)c1ccccc1` [tamoxifen]: the “Effect on the ratio of GSH to GSSG” value in assay [2] is listed as “dramatically reduce the ratio of GSH to GSSG”.
With `CC(=O)Nc1ccc(O)cc1` [acetaminophen], in assay [2], the “Effect on the ratio of GSH to GSSG” value is “dramatically reduce the ratio of GSH to GSSG”.
Turning to `Cc1cc(=O)oc2cc(OS(=O)(=O)c3ccc([N+](=O)[O-])c4ccccc34)ccc12` [PBI 4153], the “Utilization of the Coumarin compound (increase in fluorescence)” value in the assay with GST M is “can rapidly utilize the Coumarin compound as a substrate”; with GST A it was “can also utilize the compound, but at a slower rate”; in [3] it was “also utilized the compound but at an even slower rate than GST A”; on GST P, “either did not utilize this compound or utilized it at a very, very slow rate”. The “Increase in fluorescence in control wells” value in assay [4] is reported as “no apparent increase in fluorescence”.
Consider `Cc1cc(=O)oc2cc(OS(=O)(=O)c3ccc([N+](=O)[O-])cc3)ccc12` [PBI 4146], for which the “Utilization of the Coumarin compound (increase in fluorescence)” value is “can rapidly utilize the Coumarin compound” with GST M; “either did not utilize this compound or utilized it at very, very slow rate” in the assay on GST A; “can also utilize the compound, but at an even slower rate than GST M” in assay [3]; “either did not utilize this compound or utilized it at very, very slow rate” at GST P. The “Increase in fluorescence in control wells” value in assay [4] is on record as “no apparent increase in fluorescence”.
Consider `NNC(=O)c1ccncc1` [isoniazid], for which the “Effect on the ratio of GSH to GSSG” value in assay [2] was “dramatically reduce the ratio of GSH to GSSG”.
